According to ChEMBL document CHEMBL4665662, “Designed P-glycoprotein inhibitors with triazol-tetrahydroisoquinoline-core increase doxorubicin-induced mortality in multidrug resistant K562/A02 cells” (Bioorg Med Chem, 2019):
The source made the active and inactive calls. The calls are words filed in the database; no cut-off is given here.

Legend:
K562/A02 [1] = assay: Cytotoxicity against human K562/A02 cells overexpressing P-gp assessed as cell growth inhibition after 48 hrs by MTT assay; assay type: cell-based; conditions: K562/A02, 48 h
K562/A02 [2] = assay: Reversal of P-gp mediated multidrug resistance in human K562/A02 cells overexpressing P-gp assessed as fold reduction in doxorubicin IC50 at 5 uM after 48 hrs by MTT assay relative to control; assay type: cell-based
K562 = assay: Cytotoxicity against human K562 cells assessed as cell growth inhibition after 48 hrs by MTT assay; assay type: cell-based; conditions: K562, 48 h
K562/A02 [3] = assay: Reversal of P-gp mediated multidrug resistance in human K562/A02 cells overexpressing P-gp assessed as inhibition of Rh123 efflux by measuring remaining mean fluorescence intensity at 2 uM pretreated with Rh123 for 60 mins followed by incubation with compound for 90 mins by FACSCalibur flow cytometry analysis; assay type: cell-based
K562/A02 [4] = assay: Inhibition of P-gp overexpressed in human K562/A02 cells assessed as increase doxorubicin accumulation at 5 uM preincubated for 60 mins followed by doxorubicin addition and measured after 90 mins by fluorescence spectrophotometry analysis; assay type: cell-based
K562/A02 [5] = assay: Reversal of P-gp mediated multidrug resistance in human K562/A02 cells overexpressing P-gp assessed as fold reduction in doxorubicin IC50 at 5 uM preincubated for 24 hrs followed by compound washout and 6 hrs later incubated with doxorubicin and measured after 48 hrs by MTT assay relative to control; assay type: cell-based
[6] = Reversal of P-gp mediated multidrug resistance in human K562/A02 cells overexpressing P-gp assessed as potentiation of doxorubicin-induced mortality by measuring reduction in doxorubicin IC50 measured after 48 hrs by MTT assay; assay type: cell-based; conditions: K562/A02, 48 h
K562/A02 [7] = assay: Reversal of P-gp mediated multidrug resistance in human K562/A02 cells overexpressing P-gp assessed as potentiation of doxorubicin-induced mortality by measuring reduction in doxorubicin IC50 at 10 nM measured after 48 hrs by MTT assay; assay type: cell-based
K562/A02 [8] = assay: Reversal of P-gp mediated multidrug resistance in human K562/A02 cells overexpressing P-gp assessed as time duration of action for reversal of doxorubicin-induced cytotoxicity at 5 uM preincubated for 24 hrs followed by compound washout and later incubated with doxorubicin and measured after 48 hrs by MTT assay; assay type: cell-based
K562/A02 [9] = assay: (§1) Reversal of P-gp mediated multidrug resistance in human K562/A02 cells overexpressing P-gp assessed as fold reduction in doxorubicin IC50 at 5 uM preincubated for 24 hrs followed by compound washout and later incubated with doxorubicin and measured after 48 hrs by MTT assay relative to control; assay type: cell-based
K562/A02 [10] = assay: Inhibition of P-gp overexpressed in human K562/A02 cells assessed as increase in doxorubicin accumulation at 0.1 uM preincubated for 60 mins followed by doxorubicin addition and measured after 90 mins by fluorescence spectrophotometry analysis; assay type: cell-based
K562/A02 [11] = assay: Effect on P-gp expression in human K562/A02 cells overexpressing P-gp at 0.5 to 5 uM after 72 hrs by Western blot analysis; assay type: functional, cell-based; conditions: dose microM 0.5-5, time 72.0 hrs
K562/A02 [12] = assay: as §1, with “washout and 24 hrs later incubated” for “washout and later incubated”; assay type: cell-based
K562/A02 [13] = assay: as §1, with “washout and 12 hrs later incubated” for “washout and later incubated”; assay type: cell-based
K562/A02 [14] = assay: Inhibition of P-gp overexpressed in human K562/A02 cells assessed as increase in doxorubicin accumulation preincubated for 60 mins followed by doxorubicin addition and measured after 90 mins by fluorescence spectrophotometry analysis; assay type: cell-based; conditions: dose microM 0.5-5, time 60.0 min

Structure (SMILES)	IC50 (K562/A02 [1]) [µM]	Ratio IC50 (K562/A02 [2])	IC50 (K562; read-out: IC50) [µM]	other results
COc1cc2c(cc1OC)CN(CCc1ccc(-n3cc(CNc4ccccc4NC(=O)c4cccs4)nn3)cc1)CC2	60.7	21.2	> 100	–
COc1cc2c(cc1OC)CN(CCc1ccc(-n3cc(CNc4ccccc4NC(=O)c4cccnc4Cl)nn3)cc1)CC2	47	2.79	42.7	–
COc1cc2c(cc1OC)CN(CCc1ccc(-n3cc(CNc4ccccc4NC(=O)c4ccccn4)nn3)cc1)CC2	52.1	11.8	45.1	–
COc1cc2c(cc1OC)CN(CCn1cc(CNc3ccccc3NC(=O)c3cccnc3Cl)nn1)CC2	> 100	1.28	–	–
COc1cc2c(cc1OC)CN(CCc1ccc(-n3cc(CNc4ccccc4NC(=O)c4ccc(Cl)s4)nn3)cc1)CC2	63.2	42	> 100	Activity (K562/A02 [3]): > 50%; inhibition (K562/A02 [4]): Active; Ratio IC50 (K562/A02 [5]): 7.08; EC50 [6]: 46.8 nM; inhibition (K562/A02 [7]): Active; TIME (K562/A02 [8]): > 24 h; Ratio IC50 (K562/A02 [9]): 17.1; inhibition (K562/A02 [10]): Active; Activity (K562/A02 [11]): inactive; Ratio IC50 (K562/A02 [12]): 1.27; Ratio IC50 (K562/A02 [13]): 3.29; inhibition (K562/A02 [14]): Dose-dependent effect
COc1cc2c(cc1OC)CN(CCn1cc(CNc3ccccc3NC(=O)c3ccc(Cl)s3)nn1)CC2	> 100	3.38	–	–
COc1cc2c(cc1OC)CN(CCn1cc(CNc3ccccc3NC(=O)c3ccncc3)nn1)CC2	> 100	3.74	–	–
COc1cc2c(cc1OC)CN(CCc1ccc(NC(=O)c3cc(OC)c(OC)cc3NC(=O)c3cnc4ccccc4c3)cc1)CC2	30.1	42.3	18.4	Ratio IC50 (K562/A02 [5]): 10.2; Ratio IC50 (K562/A02 [9]): 19.2; Ratio IC50 (K562/A02 [12]): 2.4; Ratio IC50 (K562/A02 [13]): 4.12; inhibition (K562/A02 [14]): Dose-dependent effect
COc1ccc(CCN(C)CCCC(C#N)(c2ccc(OC)c(OC)c2)C(C)C)cc1OC (stereo unspecified)	59.2	–	–	inhibition (K562/A02 [4]): Active; IC50 (K562): 68.3 µM; inhibition (K562/A02 [14]): Dose-dependent effect
COc1cc2c(cc1OC)CN(CCc1ccc(-n3cc(CNc4ccccc4NC(=O)c4cnc5ccccc5c4)nn3)cc1)CC2	> 100	3.82	> 100	–
COc1cc2c(cc1OC)CN(CCn1cc(CNc3ccccc3NC(=O)c3cccs3)nn1)CC2	> 100	2.03	–	–
COc1cc2c(cc1OC)CN(CCc1ccc(-n3cc(CNc4ccccc4NC(=O)c4ccco4)nn3)cc1)CC2	58.4	11.2	25.8	–
COc1cc2c(cc1OC)CN(CCc1ccc(-n3cc(CNc4ccccc4NC(=O)c4ccncc4)nn3)cc1)CC2	> 100	1.09	> 100	–
COc1cc2c(cc1OC)CN(CCc1ccc(-n3cc(CNc4ccccc4NC(=O)c4ccsc4)nn3)cc1)CC2	65.9	22.8	> 100	–
COc1cc2c(cc1OC)CN(CCn1cc(CNc3ccccc3NC(=O)c3ccco3)nn1)CC2	> 100	1.28	–	–
COc1cc2c(cc1OC)CN(CCn1cc(CNc3ccccc3NC(=O)c3cc4ccccc4[nH]3)nn1)CC2	> 100	4.16	–	–
COc1cccc2c1C(=O)c1c(O)c3c(c(O)c1C2=O)C[C@@](O)(C(=O)CO)C[C@@H]3O[C@H]1C[C@H](N)[C@H](O)[C@H](C)O1 [DOXORUBICIN]	55.5	–	–	–
COc1cc2c(cc1OC)CN(CCc1ccc(-n3cc(CNc4ccccc4NC(=O)c4ccsc4C)nn3)cc1)CC2	59.6	10.9	> 100	–
COc1cc2c(cc1OC)CN(CCc1ccc(-n3cc(CNc4ccccc4NC(=O)c4cc5ccccc5[nH]4)nn3)cc1)CC2	> 100	6.57	> 100	–
COc1cc2c(cc1OC)CN(CCn1cc(CNc3ccccc3NC(=O)c3ccccn3)nn1)CC2	> 100	3.88	–	–
COc1cc2c(cc1OC)CN(CCc1ccc(-n3cc(CNc4ccccc4NC(=O)c4ccc(C)s4)nn3)cc1)CC2	> 100	21.8	> 100	–
COc1cc2c(cc1OC)CN(CCc1ccc(-n3cc(CNc4ccccc4NC(=O)c4ccc5ccccc5n4)nn3)cc1)CC2	58.1	13.3	> 100	–
COc1cc2c(cc1OC)CN(CCn1cc(CNc3ccccc3NC(=O)c3sccc3C)nn1)CC2	> 100	3.09	–	–
COc1cc2c(cc1OC)CN(CCn1cc(CNc3ccccc3NC(=O)c3ccsc3)nn1)CC2	> 100	2.27	–	–
COc1cc2c(cc1OC)CN(CCn1cc(CNc3ccccc3NC(=O)c3ccc(C)s3)nn1)CC2	> 100	2.86	–	–
